Columns and labels:
interferon (α) = test: Cytokine Induction in Human Cells: interferon induction in PBMC; assay type: cell-based; design: key to Lowest Effective Concentration (μM) Interferon: *: no induction was seen at any of the tested concentrations; generally the highest concentration tested was 10 or 30 μM; details: 18 to 24 hours incubation, tested 30–0.014 μM, ELISA; for minimal effective concentration: read-out: Lowest Effective Concentration (μM) Interferon
Description: (§1) An in vitro human blood cell system is used to assess cytokine induction. Activity is based on the measurement of interferon and tumor necrosis factor (α) (IFN and TNF, respectively) secreted into culture media as described by Testerman et. al. In “Cytokine Induction by the Immunomodulators Imiquimod and S-27609”, Journal of Leukocyte Biology, 58, 365–372 (September, 1995).
(§2) Whole blood from healthy human donors is collected by venipuncture into EDTA vacutainer tubes. Peripheral blood mononuclear cells (PBMC) are separated from whole blood by density gradient centrifugation using Histopaque®-1077. Blood is diluted 1:1 with Dulbecco's Phosphate Buffered Saline (DPBS) or Hank's Balanced Salts Solution (HBSS). The PBMC layer is collected and washed twice with DPBS or HBSS and resuspended at 4×10^6 cells/mL in RPMI complete. The PBMC suspension is added to 48 well flat bottom sterile tissue culture plates (Costar, Cambridge, Mass. or Becton Dickinson Labware, Lincoln Park, N.J.) containing an equal volume of RPMI complete media containing test compound.
(§3) The compounds are solubilized in dimethyl sulfoxide (DMSO). The DMSO concentration should not exceed a final concentration of 1% for addition to the culture wells. The compounds are generally tested at concentrations ranging from 30–0.014 μM.
(§4) The solution of test compound is added at 60 μM to the first well containing RPMI complete and serial 3 fold dilutions are made in the wells. The PBMC suspension is then added to the wells in an equal volume, bringing the test compound concentrations to the desired range (30–0.014 μM). The final concentration of PBMC suspension is 2×10^6 cells/mL. The plates are covered with sterile plastic lids, mixed gently and then incubated for 18 to 24 hours at 37° C. in a 5% carbon dioxide atmosphere.
(§5) Following incubation the plates are centrifuged for 10 minutes at 1000 rpm (˜200×g) at 4° C. The cell-free culture supernatant is removed with a sterile polypropylene pipet and transferred to sterile polypropylene tubes. Samples are maintained at −30 to −70° C. until analysis. The samples are analyzed for interferon (α) by ELISA and for tumor necrosis factor (α) by ELISA or IGEN Assay
Interferon (α) and Tumor Necrosis Factor (α) Analysis by ELISA Interferon (α) concentration is determined by ELISA using a Human Multi-Species kit from PBL Biomedical Laboratories, New Brunswick, N.J. Results are expressed in pg/mL.
(§6) The table below lists the lowest concentration found to induce interferon and the lowest concentration found to induce tumor necrosis factor for each compound.

[1] = test system: tumor necrosis factor (α); test: Cytokine Induction in Human Cells: tumor necrosis factor induction in PBMC; assay type: cell-based; design: key to Lowest Effective Concentration (μM) Tumor Necrosis Factor: *: no induction was seen at any of the tested concentrations; generally the highest concentration tested was 10 or 30 μM; details: 18 to 24 hours incubation, tested 30–0.014 μM, ELISA or IGEN assay; for minimal effective concentration: read-out: Lowest Effective Concentration (μM) Tumor Necrosis Factor
Description: as §1, §2, §3, §4, §5
Tumor necrosis factor (α) (TNF) concentration is determined using ELISA kits available from Biosource International, Camarillo, Calif. Alternately, the TNF concentration can be determined by Origen® M-Series Immunoassay and read on an IGEN M-8 analyzer from IGEN International, Gaithersburg, Md. The immunoassay uses a human TNF capture and detection antibody pair from Biosource International, Camarillo, Calif. Results are expressed in pg/mL.
as §6

Structure (SMILES) | melting point [°C] | minimal effective concentration (interferon (α)) [µM] | minimal effective concentration [1] [µM] | also measured
COCCc1nc2c(N)nc3c(c2n1CCOCCNC(=O)c1ccccc1)CCCC3 [Example 6, N-(2-{2-[4-amino-2-(2-methoxyethyl)-6,7,8,9-tetrahydro-1H-imidazo[4,5-c]quinolin-1-yl]ethoxy}ethyl)benzamide] | 141 to 143 |  |  | 
CCc1nc2c(N)nc3ccccc3c2n1CCOCCNC(=O)c1ccccc1 [Example 71, N-{2-[2-(4-amino-2-ethyl-1H-imidazo[4,5-c]quinolin-1-yl)ethoxy]ethyl}benzamide] | 188 to 191 |  |  | 
COCCc1nc2c(N)nc3ccccc3c2n1CCOCCNC(=O)c1ccccc1 [Example 4, N-(2-{2-[4-amino-2-(2-methoxyethyl)-1H-imidazo[4,5-c]quinolin-1-yl]ethoxy}ethyl)benzamide] | 184 to 187 |  |  | 
CCOCc1nc2c(N)nc3ccccc3c2n1CCOCCNC(=O)c1ccccc1 [Example 72, N-(2-{2-[4-amino-2-(ethoxymethyl)-1H-imidazo[4,5-c]quinolin-1-yl]ethoxy}ethyl)benzamide] | 154 to 156 |  |  | 
COCCc1nc2c(N)nc3c(c2n1CCOCCN(C)C(=O)c1ccccc1)CCCC3 [Example 10, N-(2-{2-[4-amino-2-(2-methoxyethyl)-6,7,8,9-tetrahydro-1H-imidazo[4,5-c]quinolin-1-yl]ethoxy}ethyl)-N-methylbenzamide] | 83 to 87 |  |  | 
COCCc1nc2c(N)nc3ccccc3c2n1CCOCCN(C)C(=O)c1ccccc1 [Example 8, N-(2-{2-[4-amino-2-(2-methoxyethyl)-1H-imidazo[4,5-c]quinolin-1-yl]ethoxy}ethyl)-N-methylbenzamide] | 93.5 to 97 |  |  | 
CCC(COCCC1CCN(C(=O)CCc2ccccc2)CC1)n1cnc2c(N)nc3ccccc3c21 (stereo not drawn) [Example 43] |  | 1 | 10 | 
CCCCc1nc2c(N)nc3ccccc3c2n1CCOCCNC(=O)c1ccc(C#N)cc1 [Example 23] |  | 1 | 10 | 
CCCCc1nc2c(N)nc3ccccc3c2n1CCOCCNC(=O)c1cccc2ccccc12 [Example 31] |  |  | 10 | Lowest Effective Concentration (μM) Interferon (interferon (α)): *
Nc1nc2ccccc2c2c1ncn2CCOCCNC(=O)c1ccc(OC(F)(F)F)cc1 [Example 66] |  |  |  | Lowest Effective Concentration (μM) Interferon (interferon (α)): *; Lowest Effective Concentration (μM) Tumor Necrosis Factor [1]: *
Nc1nc2ccccc2c2c1ncn2CCOCCNC(=O)CCc1ccccc1 [Example 58] |  | 10 | 10 | 
CCCCc1nc2c(N)nc3ccccc3c2n1CCOCCNC(=O)c1ccc(C(F)(F)F)cc1 [Example 33] |  |  | 10 | Lowest Effective Concentration (μM) Interferon (interferon (α)): *
CCC(COCCC1CCN(C(=O)c2ccc(OC)cc2)CC1)n1cnc2c(N)nc3ccccc3c21 (stereo not drawn) [Example 44] |  | 1 | 1 | 
CCC(COCCC1CCN(C(=O)c2cccnc2)CC1)n1cnc2c(N)nc3ccccc3c21 (stereo not drawn) [Example 46] |  | 0.1 | 1 | 
CCC(COCCC1CCN(C(=O)Cc2cccs2)CC1)n1cnc2c(N)nc3ccccc3c21 (stereo not drawn) [Example 41] |  | 0.1 | 1 | 
COc1cccc(C(=O)NCCOCCn2cnc3c(N)nc4ccccc4c32)c1 [Example 59] |  | 10 | 10 | 
CCCCc1nc2c(N)nc3ccccc3c2n1CCOCCNC(=O)c1cccc(C#N)c1 [Example 24] |  | 1 | 10 | 
CCC(COCCC1CCN(C(=O)Cc2ccccc2)CC1)n1cnc2c(N)nc3ccccc3c21 (stereo not drawn) [Example 39] |  | 1 | 10 | 
